# Test results taken from patent publication US9505781B2, “Compositions comprising thienopyrimidine and thienopyridine compounds and methods of use thereof” (The Regents of the University of Michigan, priority 2013, dated 2016).
# pIC50: −log10 of the molar value.
# Molecular target: T1, menin-MLL interaction (Homo sapiens, UniProt O00255)
# T1 sequence (O00255 1-610): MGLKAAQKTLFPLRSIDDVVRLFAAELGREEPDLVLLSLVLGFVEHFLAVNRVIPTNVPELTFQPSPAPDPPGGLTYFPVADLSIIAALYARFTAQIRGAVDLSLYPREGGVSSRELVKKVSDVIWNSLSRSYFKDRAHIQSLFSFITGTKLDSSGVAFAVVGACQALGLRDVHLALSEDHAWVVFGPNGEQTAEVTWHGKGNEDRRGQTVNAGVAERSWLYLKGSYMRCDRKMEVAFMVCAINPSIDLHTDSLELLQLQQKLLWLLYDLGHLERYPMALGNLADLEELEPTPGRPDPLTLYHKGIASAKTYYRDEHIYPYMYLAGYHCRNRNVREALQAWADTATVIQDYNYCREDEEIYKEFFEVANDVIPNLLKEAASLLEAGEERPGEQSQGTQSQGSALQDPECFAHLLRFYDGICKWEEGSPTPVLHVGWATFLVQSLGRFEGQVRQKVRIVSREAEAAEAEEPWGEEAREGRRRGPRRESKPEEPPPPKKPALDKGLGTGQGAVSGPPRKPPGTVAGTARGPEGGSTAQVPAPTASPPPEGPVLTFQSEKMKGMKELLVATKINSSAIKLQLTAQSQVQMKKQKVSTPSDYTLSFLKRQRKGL
# Experiment: biochemical
# Text: Compounds that inhibit the interaction decrease the fluorescence anisotropy which is being used as a read-out for compound screening and for IC50 determination.
row,Compound,pIC50
1,CS(=O)(=O)N(CC#N)c1ccc(CC(=O)N2CCN(C3=NC=NC4SC(CC(F)(F)F)=CC34)CC2)c(Cl)c1 (stereo not drawn) [Compound 63],> 7.00
2,Fc1ccc(CN2CCC(Nc3ncnc4sc(CC(F)(F)F)cc34)CC2)c(F)c1 [Compound 122],6.30 to 7.00
3,CC1(C)CN=C(N2CCN(c3ncnc4sc(CCCc5ccccc5)cc34)CC2)S1 [Compound 37],5.70 to 6.30
4,CS(=O)(=O)Nc1ccc(CC(=O)N2CCN(c3ncnc4sc(CC(F)(F)F)cc34)CC2)cc1 [Compound 45],> 7.00
5,CCc1c(CN2CCC(Nc3ncnc4sc(CC(F)(F)F)cc34)CC2)ccc2[nH]c(C#N)cc12 [Compound 295],> 7.00
6,N#Cc1cc2cc(CN3CCC(Nc4ncnc5sc(CC(F)(F)F)cc45)C(NC[C@H]4CCCN4C=O)C3)ccc2[nH]1 (stereo partly drawn) [Compound 161],> 7.00
7,Cc1ccccc1CN1CCC(Nc2ncnc3sc(CC(F)(F)F)cc23)CC1 [Compound 117],6.30 to 7.00
8,Cc1c(CN2CCC(Nc3ncnc4sc(CC(F)(F)F)cc34)CC2)ccc2c1cc(C#N)n2CCN1CCN(C)C(=O)C1 [Compound 356],> 7.00
9,O=C(CC1CCCCC1)N1CCN(c2ncnc3sc(CC(F)(F)F)cc23)CC1 [Compound 89],5.70 to 6.30
10,Cn1cc(S(=O)(=O)Nc2ccc(CC(=O)N3CCN(c4ncnc5sc(CC(F)(F)F)cc45)CC3)cc2)cn1 [Compound 83],6.30 to 7.00
11,CNC(=O)CCn1c(C#N)cc2cc(CN3CCC(Nc4ncnc5sc(CC(F)(F)F)cc45)CC3)ccc21 [Compound 239],6.30 to 7.00
12,COCCOCCn1cc(Cn2c(C#N)cc3c(C)c(CN4CCC(Nc5ncnc6sc(CC(F)(F)F)cc56)CC4)ccc32)cn1 [Compound 313],> 7.00
13,Cc1c(CN2CCC(Nc3ncnc4sc(CC(F)(F)F)cc34)CC2)ccc2c1cc(C#N)n2CCN1CCNC(=O)C1 [Compound 355],> 7.00
14,FC(F)(F)Cc1cc2c(NC3CCN(Cc4cc[nH]c4)CC3)ncnc2s1 [Compound 134],6.30 to 7.00
15,FC(F)(F)Cc1sc2ncnc3c2c1CNN3C1CCN(Cc2ccccc2)CC1 [Compound 158],5.70 to 6.30
16,O=C1CCc2cc(CN3CCC(Nc4ncnc5sc(CC(F)(F)F)cc45)CC3)ccc2N1 [Compound 136],5.70 to 6.30
17,CC1(C)CN=C(N2CCN(c3ncnc4sc(CCC5CC5)cc34)CC2)S1 [Compound 36],5.70 to 6.30
18,N#Cc1cc2c(Cl)c(CN3CCC(Nc4ncnc5sc(CC(F)(F)F)cc45)CC3)ccc2n1Cc1cn[nH]c1 [Compound 381],> 7.00
19,CC(C)c1cc2c(N3CCN(C4=NCC(C)(C)S4)CC3)ncnc2s1 [Compound 30],5.70 to 6.30
20,N#Cc1cc2cc(CN3CCC(Nc4ncnc5sc(CC(F)(F)F)cc45)CC3)cc(F)c2[nH]1 [Compound 245],6.30 to 7.00
21,Cc1c(CN2CCC(Nc3ncnc4sc(CC(F)(F)F)cc34)CC2)ccc2c1cc(C#N)n2Cc1cnco1 [Compound 361],> 7.00
22,N#Cc1cc2cc(C(CO)N3CCC(Nc4ncnc5sc(CC(F)(F)F)cc45)CC3)ccc2[nH]1 (stereo not drawn) [Compound 211],> 7.00

row,Compound,pIC50
1,FC(F)(F)Cc1cc2c(NCC3CCN(Cc4ccc(C(F)(F)F)cc4)CC3)ncnc2s1 [Compound 276],5.70 to 6.30
2,N#Cc1ccc2c(CN3CCC(Nc4ncnc5sc(CC(F)(F)F)cc45)CC3)c[nH]c2c1 [Compound 206],> 7.00
3,OCCN(c1ncnc2sc(CC(F)(F)F)cc12)C1CCN(Cc2ccccc2)CC1 [Compound 129],6.30 to 7.00
4,Cc1c[nH]c(CCC(O)(CO)Cn2c(C#N)cc3c(C)c(CN4CCC(Nc5ncnc6sc(CC(F)(F)F)cc56)CC4)ccc32)n1 (stereo not drawn) [Compound 374],> 7.00
5,FC(F)(F)Cc1cc2c(N3CCN(c4nnc(C5CC5)s4)CC3)ncnc2s1 [Compound 3],6.30 to 7.00
6,"Cc1c(CN2CCC(Nc3ncnc4sc(CC(F)(F)F)cc34)CC2)ccc2c1cc(C#N)n2Cc1cn[nH]c1 [Compound 309, 1-((1H-pyrazol-4-yl)methyl)-4-methyl-5-((4-((6-(2,2,2-trifluoroethyl)thieno[2,3-d]pyrimidin-4-yl)amino)piperidin-1-yl)methyl)-1H-indole-2-carbonitrile]",> 7.00
7,FC(F)(F)Cc1cc2c(N[C@H]3CCN(Cc4ccccc4)C[C@@H]3NCCc3ccccc3)ncnc2s1 [Compound 168],6.30 to 7.00
8,CCCc1cc2c(NC3CCN(Cc4ccc(C)cc4)CC3)ncnc2s1 [Compound 151],5.70 to 6.30
9,CN1CCN(Cc2ccc(CN3CCC(Nc4ncnc5sc(CC(F)(F)F)cc45)CC3)cc2)CC1 [Compound 143],5.70 to 6.30
10,Cc1c(CN2CCC(Nc3ncnc4sc(CC(F)(F)F)cc34)CC2)ccc2c1cc(C#N)n2CCN1CCN(C(=O)CCC2CC2)CC1 [Compound 344],> 7.00
11,Cc1c(CN2CCC(Nc3ncnc4sc(CC(F)(F)F)cc34)CC2)ccc2c1cc(C#N)n2Cc1cc(Cc2ccc(=O)[nH]c2)[nH]n1 [Compound 347],> 7.00
12,OCc1ccc(CN2CCC(CNc3ncnc4sc(CC(F)(F)F)cc34)CC2)cc1 [Compound 266],5.70 to 6.30
13,COc1cc2c(cc1CN1CCC(Nc3ncnc4sc(CC(F)(F)F)cc34)CC1)cc(C#N)n2Cc1cn[nH]c1 [Compound 390],> 7.00
14,Cc1c(CN2CCC(Nc3ncnc4sc(CC(F)(F)F)cc34)CC2)ccc2c1cc(C#N)n2CC(O)(CO)CCC1CCCCC1 (stereo not drawn) [Compound 346],> 7.00
15,Cc1ccccc1CN1CCC(CNc2ncnc3sc(CC(F)(F)F)cc23)CC1 [Compound 258],6.30 to 7.00
16,COCCOCCOC(CO)Cn1c(C#N)cc2cc(CN3CCC(Nc4ncnc5sc(CC(F)(F)F)cc45)CC3)ccc21 (stereo not drawn) [Compound 319],> 7.00
17,CC(C)N(c1ccc(CC(=O)N2CCN(c3ncnc4sc(CC(F)(F)F)cc34)CC2)cc1)S(C)(=O)=O [Compound 103],5.70 to 6.30
18,CC1(C)CN=C(N2CCN(c3ncnc4sc(CCCCc5ccccc5)cc34)CC2)S1 [Compound 40],5.70 to 6.30
19,O=C(Cc1ccc(NS(=O)(=O)CC(F)(F)F)cc1Cl)N1CCN(C2=NC=NC3SC(CC(F)(F)F)=CC23)CC1 (stereo not drawn) [Compound 287],5.70 to 6.30
20,O=C(C1CCCCC1)N1CCN(c2ncnc3sc(CC(F)(F)F)cc23)CC1 [Compound 87],5.70 to 6.30
21,N#Cc1c(F)c2cc(CN3CCC(Nc4ncnc5sc(CC(F)(F)F)cc45)CC3)ccc2n1CC(N)=O [Compound 213],> 7.00
22,O=C1NCCC1c1ccc(CC(=O)N2CCN(c3ncnc4sc(CC(F)(F)F)cc34)CC2)cc1 (stereo not drawn) [Compound 99],5.70 to 6.30

row,Compound,pIC50
1,O=C(Cc1ccc2cc[nH]c2c1)N1CCN(c2ncnc3sc(CC(F)(F)F)cc23)CC1 [Compound 81],6.30 to 7.00
2,Cc1c(CN2CCC(Nc3ncnc4sc(CC(F)(F)F)cc34)CC2)ccc2c1cc(C#N)n2CC(O)(CO)CCn1ccnn1 (stereo not drawn) [Compound 373],> 7.00
3,Cc1c(CC(F)(F)F)sc2ncnc(NC3CCN(Cc4ccccc4)CC3)c12 [Compound 126],6.30 to 7.00
4,CN1CCC(N2CCN(c3ncnc4sc(CC(F)(F)F)cc34)CC2)CC1 [Compound 27],5.70 to 6.30
5,Cc1c(CN2CCC(Nc3ncnc4sc(CC(F)(F)F)cc34)CC2)ccc2c1cc(C#N)n2Cc1c[nH]nn1 [Compound 311],> 7.00
6,N#Cc1cc2cc(CN3CCC(Nc4c(COCCCC5CCCC5)cnc5sc(CC(F)(F)F)cc45)CC3)ccc2[nH]1 [Compound 419],5.70 to 6.30
7,NS(=O)(=O)Cc1cccc(CC(=O)N2CCN(c3ncnc4sc(CC(F)(F)F)cc34)CC2)c1 [Compound 96],5.70 to 6.30
8,CCCc1cc2c(NC3CCN(Cc4ccccc4C)CC3)ncnc2s1 [Compound 153],5.70 to 6.30
9,FC(F)(F)Cc1sc2ncnc(N3CCN(c4nnc(C(F)(F)F)s4)CC3)c2c1I [Compound 6],6.30 to 7.00
10,FC(F)(F)Cc1cc2c(N3CCN(c4nnc(CC5CCCC5)s4)CC3)ncnc2s1 [Compound 19],5.70 to 6.30
11,CCC(=O)N1CCN(CCCn2c(C#N)cc3cc(CN4CCC(Nc5ncnc6sc(CC(F)(F)F)cc56)CC4)ccc32)CC1 [Compound 396],> 7.00
12,Cc1c(CN2CCC(Nc3ncnc4sc(CC(F)(F)F)cc34)CC2)ccc2c1cc(C#N)n2CCS(C)(=O)=O [Compound 354],> 7.00
13,FC(F)(F)Cc1cc2c(NC3CCN(Cc4ccc(CN5CCCCC5)cc4)CC3)ncnc2s1 [Compound 116],6.30 to 7.00
14,FC(F)(F)Cc1cc2c(N3CCN(C4CCCCC4)CC3)ncnc2s1 [Compound 11],6.30 to 7.00
15,Cc1c(CN2CCC(Nc3ncnc4sc(CC(F)(F)F)cc34)CC2)ccc2c1cc(C#N)n2CCN1CCN(CC(N)=O)CC1 [Compound 364],> 7.00
16,N#Cc1ccc(CN2CCC(CNc3ncnc4sc(CC(F)(F)F)cc34)CC2)c(Cl)c1 [Compound 256],6.30 to 7.00
17,NCCS(=O)(=O)Nc1ccc(CC(=O)N2CCN(c3ncnc4sc(CC(F)(F)F)cc34)CC2)cc1 [Compound 50],> 7.00
18,OCC(O)CN(c1ncnc2sc(CC(F)(F)F)cc12)C1CCN(Cc2ccccc2)CC1 (stereo not drawn) [Compound 128],6.30 to 7.00
19,Cc1ccc(CN2CCC(Nc3ncnc4sc(CC(F)(F)F)cc34)CC2)cc1 [Compound 147],5.70 to 6.30
20,Cc1c(CN2CCC(Nc3ncnc4sc(CC(F)(F)F)cc34)CC2)ccc2c1cc(C#N)n2CCN1CCN[C@@H](C)C1 [Compound 367],> 7.00
21,COc1c(CN2CCC(Nc3ncnc4sc(CC(F)(F)F)cc34)CC2)ccc2c1cc(C#N)n2CC(N)=O [Compound 193],> 7.00
22,N#Cc1cc2ccc(CN3CCC(Nc4ncnc5sc(CC(F)(F)F)cc45)CC3)cc2[nH]1 [Compound 229],6.30 to 7.00
